Source: patent US20240016941A1, “COMBINATION THERAPY” (priority 2020, published 2024)

Legend:
[1] = biological target: T1, purified LasB protein from P. aeruginosa (Pseudomonas aeruginosa, UniProt P14756); assay: Fluorometric assay to determine Ki (purified LasB, Abz-Ala-Gly-Leu-Ala-p-Nitro-Benzyl-Amide substrate); type: biochemical
T1 construct: purchased Merck or Charles River Laboratories
Method: (§1) Experiments were therefore conducted (1) to measure the potency of inhibition of compounds of the invention against purified Pseudomonas aeruginosa LasB enzyme and also experiments were conducted (2) to measure the ability of compounds of the invention to inhibit LasB-catalysed elastin degradation. The first assay uses a commercial fluorescent synthetic peptide and purified LasB enzyme. The LasB hydrolysis kinetics are measured allowing the determination of the IC50 and Ki of the inhibitors; the second is a more physiological assay using dialysed Pseudomonas aeruginosa supernatant as source of enzyme, plus its natural substrate Elastin. It is an “end point assay” that determines the percentage of LasB inhibition by each compound for one particular time point and inhibitor concentration. Technical details are described below:
This assay uses commercially available substrate (Abz-Ala-Gly-Leu-Ala-p-Nitro-Benzyl-Amide (Ex: 340 nm, Em: 415 nm) from Peptide International) and purified LasB protein from P. aeruginosa (provided by Merck or Charles River Laboratories). It is performed to determine LasB elastase activity and assess compound inhibition in 96-well plate format. All compounds of Formula (I) were assessed using the method described below.
Method: 10 to 140 ng/ml purified LasB is incubated with 250 μM Abz-Ala-Gly-Leu-Ala-p-Nitro-Benzyl-Amide in 50 mM Tris-HCl pH 7.4, 2.5 mM CaCl2), 0.01% of Triton X100 at 37° C. LasB activity (corresponding to fluorescence emission induced by substrate hydrolysis) is measured over 30 min at 37° C. with a fluorescence plate reader such as the Perkin Elmer Envision or similar. Different range of inhibitor concentrations are routinely assessed depending of inhibitor potency from 0.0016 to 200 μM (2-fold dilutions series) in order to determine IC50.
The equation used to calculate the Ki from IC50 is: Ki=IC50/(1+([S]/Km)) where [S]=250 μM and Km=214 μM.

[2] = biological target: T2, LasB elastase activity of dialysed supernatant from P. aeruginosa PAO1 (Pseudomonas aeruginosa, UniProt P14756); assay: Elastin Congo-Red assay to determine % inhibition (dialysed PAO1 supernatant); type: biochemical; conditions: read-out: Elastin hydrolysis % inhibition @ 25 μM inhibitor concentration
T2 construct: Culture supernatants are recovered by centrifugation and filtrated through a 0.22 μM filter; endogenous in cells; host or cells: P. aeruginosa strain PAO1, culture supernatant, filtered and dialysed
T2 sequence (P14756 198-498): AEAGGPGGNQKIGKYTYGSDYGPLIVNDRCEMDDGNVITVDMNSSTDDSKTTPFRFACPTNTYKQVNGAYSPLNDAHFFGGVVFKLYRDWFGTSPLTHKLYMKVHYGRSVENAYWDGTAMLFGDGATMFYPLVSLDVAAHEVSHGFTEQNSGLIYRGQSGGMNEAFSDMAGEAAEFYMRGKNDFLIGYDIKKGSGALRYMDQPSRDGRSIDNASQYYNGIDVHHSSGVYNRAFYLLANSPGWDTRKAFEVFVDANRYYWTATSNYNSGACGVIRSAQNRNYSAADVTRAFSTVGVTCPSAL
Method: as §1
The Elastin assay uses as source of enzyme dialysed supernatant from P. aeruginosa PAO1 and the Elastin Congo-Red as substrate. The natural LasB substrate, elastin, is complexed with the congo-red dye (Elastin Congo-Red, ECR). The elastolysis activity from the culture supernatant will degrade elastin and release the congo-red dye into the supernatant. This red dye release can be measured with a spectrophotometer.
Method: To determine LasB elastase activity and assess compound inhibition, an overnight culture of P. aeruginosa strain PAO1 is diluted in LB medium. After reaching an OD600nm of 0.6, this culture is diluted and incubated for additional 18-24 hours in a shaking incubator. Culture supernatants are recovered by centrifugation and filtrated through a […] filter. These supernatants are dialysed (filtration molecules <20 kDa) into a 50 mM Tris-HCl pH 7.4, 2.5 mM CaCl2 solution at 4° C. under agitation for 24 hours. Supernatant dialysed is then mixed volume/volume with the ECR suspension (20 mg/mL of ECR in 100 mM Tris-HCl pH 7.4 buffer supplemented with 1 mM CaCl2)) supplemented with Triton X100 (final concentration of 0.01%) in presence of DMSO (positive control) and/or different concentrations of compound (routinely 50 to 1.56 μM). As a negative control, the dialysed supernatant is replaced by Tris-HCl solution (50 mM Tris-HCl pH 7.4, 2.5 mM CaCl2). The mixed reaction is then incubated overnight in a 37° C. shaking incubator. The reaction supernatant is recovered by centrifugation and the release of congo-red is measured by its absorbance at 495 nm (OD495nm).
Percentage inhibition is determined using the following equation:
((OD495 nm value of positive control−OD495nm value of negative control)−(OD495nm value of treated supernatant−OD495nm value of negative control))/(OD495nm value of positive control−OD495nm value of negative control)×100.

T1 sequence (P14756 198-498): as above

SMILES	Ki [1] [nM]	inhibition at 25 µM [2] [%]
COc1cc2sc(CNC(=O)C3(CC(=O)[O-])Cc4cc(F)c(F)cc4C3)nc2cc1OCCC[N+]1(C)CCOCC1 [Example 15, 2-[5,6-difluoro-2-[[6-methoxy-5-[3-(4-methylmorpholin-4-ium-4-yl)propoxy]-1,3-benzothiazol-2-yl]methylcarbamoyl]indan-2-yl]acetate]	50 to 200	60 to 80
COc1cc2sc(CNC(=O)C3(CC(=O)[O-])Cc4ccccc4C3)nc2cc1OCCC[N+]1(C)CCOCC1 [Example 16, 2-[2-[[6-methoxy-5-[3-(4-methylmorpholin-4-ium-4-yl)propoxy]-1,3-benzothiazol-2-yl]methylcarbamoyl]indan-2-yl]acetate]	< 50	60 to 80
COc1cc2sc(CNC(=O)C3(CC(=O)[O-])Cc4ccccc4C3)nc2cc1OCC1CC[N+](C)(C)CC1 [Example 17, 2-[2-[[5-[(1,1-dimethylpiperidin-1-ium-4-yl)methoxy]-6-methoxy-1,3-benzothiazol-2-yl]methylcarbamoyl]indan-2-yl]acetate]	50 to 200	60 to 80
CC[N+](C)(CC)CCCOc1cc2nc(CNC(=O)C3(CC(=O)[O-])Cc4ccccc4C3)sc2cc1OC [Example 18, 2-[2-[[5-[3-[diethyl(methyl)ammonio]propoxy]-6-methoxy-1,3-benzothiazol-2-yl]methylcarbamoyl]indan-2-yl]acetate]	< 50	60 to 80
COc1cc2sc(CNC(=O)C3(CC(=O)[O-])Cc4cc(F)c(F)cc4C3)nc2cc1OCCC[N+](C)(C)CCO [Example 21, 2-[5,6-difluoro-2-[[5-[3-[2-hydroxyethyl(dimethyl)ammonio]propoxy]-6-methoxy-1,3-benzothiazol-2-yl]methylcarbamoyl]indan-2-yl]acetate]	< 50	> 80
CN1CCN(C(=O)COc2ccc3sc(CNC(=O)C4(CC(=O)O)Cc5ccccc5C4)nc3c2)CC1 [Example 24, 2-[2-[[5-[2-(4-methylpiperazin-1-yl)-2-oxo-ethoxy]-1,3-benzothiazol-2-yl]methylcarbamoyl]indan-2-yl]acetic acid]	200 to 10000	60 to 80
CN1CCN(CCOc2ccc3sc(CNC(=O)C4(CC(=O)O)Cc5ccccc5C4)nc3c2)CC1 [Example 25, 2-[2-[[5-[2-(4-methylpiperazin-1-yl)ethoxy]-1,3-benzothiazol-2-yl]methylcarbamoyl]indan-2-yl]acetic acid]	200 to 10000	60 to 80
CN1CCN(C(=O)c2ccc3sc(CNC(=O)C4(CC(=O)O)Cc5ccccc5C4)nc3c2)CC1 [Example 27, 2-[2-[[5-(4-methylpiperazine-1-carbonyl)-1,3-benzothiazol-2-yl]methylcarbamoyl]indan-2-yl]acetic acid]	50 to 200	60 to 80
CN(C)C1CN(C(=O)c2ccc3sc(CNC(=O)C4(CC(=O)O)Cc5ccccc5C4)nc3c2)C1 [Example 32, 2-[2-[[5-[3-(dimethylamino)azetidine-1-carbonyl]-1,3-benzothiazol-2-yl]methylcarbamoyl]indan-2-yl]acetic acid]	50 to 200	60 to 80
COc1cc2sc(CNC(=O)C3(CC(=O)O)Cc4ccccc4C3)nc2cc1C(=O)N1CCN(C)CC1 [Example 33, 2-[2-[[6-methoxy-5-(4-methylpiperazine-1-carbonyl)-1,3-benzothiazol-2-yl]methylcarbamoyl]indan-2-yl]acetic acid]	< 50	60 to 80
COc1cc2sc(CNC(=O)C3(CC(=O)O)Cc4cc(F)c(F)cc4C3)nc2cc1C(=O)N1CCN(C)CC1 [Example 34, 2-[5,6-difluoro-2-[[6-methoxy-5-(4-methylpiperazine-1-carbonyl)-1,3-benzothiazol-2-yl]methylcarbamoyl]indan-2-yl]acetic acid]	< 50	> 80
COc1cc2sc(CNC(=O)C3(CC(=O)[O-])Cc4cc(F)c(F)cc4C3)nc2cc1C(=O)N1CC[N+](C)(C)CC1 [Example 35, 2-[2-[[5-(4,4-dimethylpiperazin-4-ium-1-carbonyl)-6-methoxy-1,3-benzothiazol-2-yl]methylcarbamoyl]-5,6-difluoro-indan-2-yl]acetate]	50 to 200	60 to 80
COc1cc2sc(CNC(=O)C3(CC(=O)O)Cc4ccccc4C3)nc2cc1C(=O)N1CC(N(C)C)C1 [Example 36, 2-[2-[[5-[3-(dimethylamino)azetidine-1-carbonyl]-6-methoxy-1,3-benzothiazol-2-yl]methylcarbamoyl]indan-2-yl]acetic acid]	< 50	> 80
COc1cc2sc(CNC(=O)C3(CC(=O)O)Cc4cc(F)c(F)cc4C3)nc2cc1C(=O)N1CC(N(C)C)C1 [Example 37, 2-[2-[[5-[3-(dimethylamino)azetidine-1-carbonyl]-6-methoxy-1,3-benzothiazol-2-yl]methylcarbamoyl]-5,6-difluoro-indan-2-yl]acetic acid]	< 50	> 80
COc1cc2sc(CNC(=O)C3(CC(=O)O)Cc4ccccc4C3)nc2cc1C(=O)N1CCC(N(C)C)CC1 [Example 38, 2-[2-[[5-[4-(dimethylamino)piperidine-1-carbonyl]-6-methoxy-1,3-benzothiazol-2-yl]methylcarbamoyl]indan-2-yl]acetic acid]	50 to 200	60 to 80
COc1cc2sc(CNC(=O)C3(CC(=O)O)Cc4ccccc4C3)nc2cc1C(=O)N1CCOC(CN(C)C)C1 (stereo not shown) [Example 40, 2-[2-[[5-[2-[(dimethylamino)methyl]morpholine-4-carbonyl]-6-methoxy-1,3-benzothiazol-2-yl]methylcarbamoyl]indan-2-yl]acetic acid]	50 to 200	60 to 80
COc1cc2sc(CNC(=O)C3(CC(=O)[O-])Cc4ccccc4C3)nc2cc1C(=O)N1CCOC(C[N+](C)(C)C)C1 (stereo not shown) [Example 41, 2-[2-[[6-methoxy-5-[2-[(trimethylammonio)methyl]morpholine-4-carbonyl]-1,3-benzothiazol-2-yl]methylcarbamoyl]indan-2-yl]acetate]	50 to 200	60 to 80
COc1cc2sc(CNC(=O)C3(CC(=O)[O-])Cc4ccccc4C3)nc2cc1C(=O)N1CC([N+](C)(C)C)C1 [Example 42, 2-[2-[[6-methoxy-5-[3-(trimethylammonio)azetidine-1-carbonyl]-1,3-benzothiazol-2-yl]methylcarbamoyl]indan-2-yl]acetate]	200 to 10000	60 to 80
COc1cc2sc(CNC(=O)C3(CC(=O)[O-])Cc4cc(F)c(F)cc4C3)nc2cc1C(=O)N1CC([N+](C)(C)C)C1 [Example 43, 2-[5,6-difluoro-2-[[6-methoxy-5-[3-(trimethylammonio)azetidine-1-carbonyl]-1,3-benzothiazol-2-yl]methylcarbamoyl]indan-2-yl]acetate]	50 to 200	60 to 80
COc1cc2sc(CNC(=O)C3(CC(=O)O)Cc4ccccc4C3)nc2cc1S(=O)(=O)N1CCN(C)CC1 [Example 45, 2-[2-[[6-methoxy-5-(4-methylpiperazin-1-yl)sulfonyl-1,3-benzothiazol-2-yl]methylcarbamoyl]indan-2-yl]acetic acid]	50 to 200	60 to 80
